In patent US12187662B2, “FOXM1 inhibitor compositions and methods of using the same” (The Board of Trustees of the University of Illinois, priority 2018, dated 2025):

Assays:
[1] = Pharmacokinetic studies in mice after single s.c. or oral dose
[2] = system: FOXM1 cistrome genes in MDA-MB-231 cells; experiment: RNA-Seq Gene Set Enrichment Analysis, MDA-MB-231; type: cell-based, human; details: NB-73 […] 24 h, siFOXM1 25 nM 72 h
Procedure: RNA-Seq transcriptional profiling and gene ontology analysis For gene expression analysis, total RNA was extracted from cells using Trizol reagent and further cleaned using the Turbo DNase and RNAqueous kits (ThermoFisher). Cells were treated with Veh (0.1% EtOH), or with the compounds indicated for 9 h or 24 h. Once the sample quality and replicate reproducibility were verified, samples from each group were subjected to sequencing. RNA at a concentration of 100 ng/μL in nuclease-free water was used for library construction. cDNA libraries were prepared with the mRNA-TruSeq Kit (Illumina, Inc.). In brief, the poly-A containing mRNA was purified from total RNA, the RNA was fragmented, double-stranded cDNA was generated from fragmented RNA, and adapters were ligated to the ends.
The paired-end read data from the HiSeq 4000 were processed and analyzed through a series of steps. […] Reads were trimmed of adapters and low expression data using Trimmomatic version 0.38. The star alignment tool version 2.5.3a was used to align the sequenced reads to the GRCh37 human genome from Ensembl. Gene counts were calculated using subread version 1.5.2. […]
Gene Set Enrichment Analysis (GSEA) was used for examination of the genome-wide expression profiles. Overrepresented GO biological processes were determined by the web-based DAVID Bioinformatics Resources database.

[3] = system: FOXM1 target genes in MCF7 cells; experiment: FOXM1 target gene expression by qRT-PCR, MCF7; type: cell-based, human; details: MCF7, 24 h, at IC50 concentration
Procedure: (§1) RNA was extracted from cells and expression of different genes was monitored by qRT-PCR. Assays were run in triplicate. Values are mean±SEM. *, p<0.05; **, p<0.01; ***, p<0.001. RNA isolation and real-time PCR Total RNA was isolated using TRIzol (Invitrogen) and reverse transcribed using […] reverse transcriptase (New England BioLabs). Real-time PCR was performed using SYBRgreen PCR Master Mix (Roche) as described (Bergamaschi et al., Breast Cancer Res., 2014, 16:436). Relative mRNA levels of genes were normalized to the housekeeping gene 36B4, and fold change calculated relative to the vehicle treated samples. Results are the average±SD from at least two independent experiments carried out in triplicate. Primer sequences for the genes studied were obtained from the Harvard Primer Bank. Sequences are available on their website.

[4] = system: DT22 triple negative human breast tumor xenografts; experiment: DT22 triple negative breast tumor xenografts in NSG mice; type: in vivo, mouse; details: for Expression of FOXM1-regulated genes in tumors: q-PCR at end of treatment
Procedure: In vivo breast cancer xenograft studies For examination of the growth of triple-negative DT22 breast tumors, intact female NOD/SCID-gamma (NSG) mice were used. DT-22 cells (1×10^6 cells/mouse) were injected s.c. into the right axial mammary gland. Mice received s.c. injection or oral gavage daily or every second or third day, as indicated, with vehicle or FOXM1 inhibitor compound, and tumor growth was monitored over time.

[5] = system: FOXM1 target genes in DT22 cells; experiment: FOXM1 target gene expression by qRT-PCR, DT22; type: cell-based, human; details: DT22, 24 h, at IC50 concentration
Text: as §1, with “Real-time PCR was performed using SYBRgreen PCR Master Mix (Roche) as described (Bergamaschi et al., Breast Cancer Res., 2014, 16:436).” left out

[6] = system: tamoxifen-resistant MCF7 breast cancer cells; experiment: Proliferation of tamoxifen-resistant MCF7 cells; type: cell-based, human; details: 6 days
Procedure: Values are mean±SD of three separate assays. Cell proliferation assay WST-1 assay (Roche, Basel, Switzerland) was used to quantify cell viability as described (Gong et al., Mol. Cell Endocrinol., 2016, 437:190-200). Absorbance was measured at 450 nm using a VICTOR X5 PerkinElmer 2030 Multilabel Plate Reader. All assays were performed in triplicate.

C[N+]1(CCCCCCOc2ccc(C(c3ccc(OCCCCCC[N+]4(C)CCCCCC4)cc3)=C3C4C[C@H]5C[C@@H](C4)C[C@H]3C5)cc2)CCCCCC1 [NB-73, 1,1′-((((((5r,7r)-adamantan-2-ylidene)methylene)bis(4,1-phenylene))bis(oxy))bis(hexane-6,1-diyl))bis(1-methylazepan-1-ium) diiodide]
half-life ([1]; female, CD-1, mouse, plasma, sc): 25 to 40 h
half-life ([1]; female, CD-1, mouse, plasma, sc, 60 mg/kg): 170 h
AUC(0-t) ([1]; female, CD-1, mouse, plasma, sc, 60 mg/kg, PK s.c. AUC0-48, mice, 60 mg/kg s.c.): 190 µM·h
PK p.o. AUC0-48 ([1]; mice, 60 mg/kg p.o.): too low to measure
Blood levels after oral administration ([1]; mice, oral, doses of FIGS. 6A-6B): very low levels
Blood levels after s.c. injection ([1]; mice, s.c., doses of FIGS. 6A-6B): very high blood levels
GSEA enrichment against FOXM1 target gene sets [2]: negative enrichment scores
Expression of ATF3 (gene suppressed by FOXM1) [3]: increased
Expression of FOXM1 stimulated target genes (FOXM1C, AURKB, CCNB1, PLK1) [3]: significantly reduced
Growth of DT22 tumor xenografts ([4]; 5 mg/kg s.c. daily, every other day from day 21): reduced tumor growth
Expression of FOXM1-regulated genes in tumors ([4]; 5 mg/kg s.c.): significant reduction
Growth of DT22 tumor xenografts ([4]; 10 mg/kg s.c. daily, every other day from day 21): even more markedly suppressed growth
Expression of FOXM1-regulated genes in tumors ([4]; 10 mg/kg s.c.): greatly reduced
Tumor growth in vivo, low doses ([4]; 5 or 10 mg/kg s.c. every second or third day): greatly suppress tumor growth
Growth of DT22 tumor xenografts ([4]; s.c., 20 mg/kg every other day for first 10 days then 10 mg/kg every other day): greatly suppress tumor growth
Expression of ATF3 (gene suppressed by FOXM1) [5]: increased
Expression of FOXM1 stimulated target genes (FOXM1C, AURKB, CCNB1, PLK1) [5]: significantly reduced
Effect on proliferation of tamoxifen-resistant MCF7 cells [6]: effectively suppressed
